ChEMBL document CHEMBL1125546, “Novel 5-HT3 antagonists. Isoquinolinones and 3-aryl-2-pyridones” (J Med Chem, 1992)

Legend:
Rattus norvegicus = assay: Inhibitory activity against Bezold-jarisch functional assay, inducing a transient bradycardia upon intravenous administration of 5-hydroxytryptamine-(10 ug/kg) in anesthetized rats.; settings: read-out: ID50 (the source's name)
[1] = Compound was evaluated for protection against cisplatin-induced emesis by measuring number of retches in ferrets when administered intravenously at 0.1 mg/kg.; format: functional, Mustela putorius furo; settings: route intravenous
[2] = Compound was evaluated for protection against cisplatin-induced emesis by measuring number of emetic episodes in ferrets when administered intravenously at 0.1 mg/kg.; format: functional, Mustela putorius furo; settings: route intravenous
[3] = Compound was evaluated for protection against cisplatin-induced emesis by measuring number of retches in ferrets when administered intravenously at 0.03 mg/kg.; format: functional, Mustela putorius furo; settings: route intravenous
[4] = Compound was evaluated for protection against cisplatin-induced emesis by measuring number of emetic episodes in ferrets when administered intravenously at 0.03 mg/kg.; format: functional, Mustela putorius furo; settings: route intravenous

## Cc1[nH]cnc1Cn1ccc2c(c1=O)-c1ccccc1CC2
Rattus norvegicus
  ED50: 0.46 µg/kg

## Cc1[nH]cnc1Cn1ccc2cc(Br)c3ccccc3c2c1=O
Rattus norvegicus
  ED50: 6.21 µg/kg

## Cc1ccc(-c2cccn(Cc3[nH]cnc3C)c2=O)o1
Rattus norvegicus
  ED50: 9.18 µg/kg

## Cc1nc[nH]c1Cn1ccc2c(C)cc3ccccc3c2c1=O
Rattus norvegicus
  ED50: 1.09 µg/kg

## Cc1[nH]cnc1Cn1ccc2ccc(Cl)cc2c1=O
Rattus norvegicus
  ED50: 25.5 µg/kg

## Cc1[nH]cnc1Cn1cccc(-c2ccsc2)c1=O
Rattus norvegicus
  ED50: 3.1 µg/kg

## Cc1[nH]cnc1Cn1ccc2ncc3ccccc3c2c1=O
Rattus norvegicus
  ED50: 0.16 µg/kg

## Cc1nc[nH]c1Cn1ccc2c(=O)n(C)c3ccccc3c2c1=O
Rattus norvegicus
  ED50: 0.23 µg/kg

## Cc1[nH]cnc1Cn1cnc2ccccc2c1=O
Rattus norvegicus
  ED50: > 100 µg/kg

## Cc1[nH]cnc1Cn1cccc(-c2cccs2)c1=O
[1]
  No. of retches: 22
[2]
  No. of emetic episodes: 1.3
[3]
  No. of retches: 90.8
[4]
  No. of emetic episodes: 6
Rattus norvegicus
  ED50: 0.27 µg/kg

## COc1ccc2c(ccc3ccn(Cc4[nH]cnc4C)c(=O)c32)c1
Rattus norvegicus
  ED50: 56.6 µg/kg

## Cc1nc[nH]c1Cn1ccc2c(C(=O)N(C)C)cc3ccccc3c2c1=O
Rattus norvegicus
  ED50: 7.46 µg/kg

## COc1cc(N)c(Cl)cc1C(=O)NCc1[nH]cnc1C
Rattus norvegicus
  ED50: 3.53 µg/kg

## Cc1[nH]cnc1Cn1cccc(-c2ccccc2)c1=O
Rattus norvegicus
  ED50: 12 µg/kg

## Cc1[nH]cnc1Cn1ccc2cc(N)ccc2c1=O
Rattus norvegicus
  ED50: 37.9 µg/kg

## COc1ccc(-c2cccn(Cc3[nH]cnc3C)c2=O)cc1
Rattus norvegicus
  ED50: > 100 µg/kg

## Cc1[nH]cnc1Cn1ccc2ccc3ncccc3c2c1=O
Rattus norvegicus
  ED50: 2.86 µg/kg

## Cc1[nH]cnc1Cn1cccc(-c2ccoc2)c1=O
Rattus norvegicus
  ED50: 8.65 µg/kg

## Cc1[nH]cnc1Cn1ccc2cnc3ccccc3c2c1=O
Rattus norvegicus
  ED50: 0.28 µg/kg

## Cc1[nH]cnc1Cn1ccc2nc3ccccc3cc2c1=O
Rattus norvegicus
  ED50: 19.5 µg/kg

## Cc1cc2c(=O)n(Cc3[nH]cnc3C)ccc2cc1N
Rattus norvegicus
  ED50: 4.1 µg/kg

## Cc1[nH]cnc1Cn1cccc(-c2ccccn2)c1=O
Rattus norvegicus
  ED50: 10.4 µg/kg

## CCn1c2ccccc2c2c3c(=O)n(Cc4[nH]cnc4C)ccc3ccc21
Rattus norvegicus
  ED50: 43.9 µg/kg

## Cc1[nH]cnc1Cn1cccc(-c2cc3ccccc3s2)c1=O
Rattus norvegicus
  ED50: > 100 µg/kg

## Cc1[nH]cnc1Cn1ccc2cccc(N)c2c1=O
Rattus norvegicus
  ED50: 53.1 µg/kg

## Cc1[nH]cnc1Cn1cccc(-c2cccn2C)c1=O
Rattus norvegicus
  ED50: 43.3 µg/kg

## Cc1[nH]cnc1Cn1ccc2c(O)cc3ccccc3c2c1=O
Rattus norvegicus
  ED50: 0.62 µg/kg
